Experimental data reported in patent US11098083B2, “Peptide that regulates fat metabolism and method for regulating fat metabolism” (SHENZHEN INSTITUTES OF ADVANCED TECHNOLOGY, priority 2017, dated 2021).
Blank lines part the entries; values can stand above or below the substance they belong to. Ends that are not written are not given here.

How the values were obtained:
GPRC6A = target: T1, GPRC6A (Homo sapiens, UniProt Q5T6X5); test: internalization of GPRC6A with Cy5-labelled peptides in hGPRC6A-overexpressed Hela cells; format: cell-based; conditions: 100 nM, 37° C., 30 minutes, confocal microscope, FIG. 6C
T1 construct: expressed in transfected cells; host or cells: Hela cells (transfected with Lipofectamine 2000)
T1 sequence (Q5T6X5 19-926): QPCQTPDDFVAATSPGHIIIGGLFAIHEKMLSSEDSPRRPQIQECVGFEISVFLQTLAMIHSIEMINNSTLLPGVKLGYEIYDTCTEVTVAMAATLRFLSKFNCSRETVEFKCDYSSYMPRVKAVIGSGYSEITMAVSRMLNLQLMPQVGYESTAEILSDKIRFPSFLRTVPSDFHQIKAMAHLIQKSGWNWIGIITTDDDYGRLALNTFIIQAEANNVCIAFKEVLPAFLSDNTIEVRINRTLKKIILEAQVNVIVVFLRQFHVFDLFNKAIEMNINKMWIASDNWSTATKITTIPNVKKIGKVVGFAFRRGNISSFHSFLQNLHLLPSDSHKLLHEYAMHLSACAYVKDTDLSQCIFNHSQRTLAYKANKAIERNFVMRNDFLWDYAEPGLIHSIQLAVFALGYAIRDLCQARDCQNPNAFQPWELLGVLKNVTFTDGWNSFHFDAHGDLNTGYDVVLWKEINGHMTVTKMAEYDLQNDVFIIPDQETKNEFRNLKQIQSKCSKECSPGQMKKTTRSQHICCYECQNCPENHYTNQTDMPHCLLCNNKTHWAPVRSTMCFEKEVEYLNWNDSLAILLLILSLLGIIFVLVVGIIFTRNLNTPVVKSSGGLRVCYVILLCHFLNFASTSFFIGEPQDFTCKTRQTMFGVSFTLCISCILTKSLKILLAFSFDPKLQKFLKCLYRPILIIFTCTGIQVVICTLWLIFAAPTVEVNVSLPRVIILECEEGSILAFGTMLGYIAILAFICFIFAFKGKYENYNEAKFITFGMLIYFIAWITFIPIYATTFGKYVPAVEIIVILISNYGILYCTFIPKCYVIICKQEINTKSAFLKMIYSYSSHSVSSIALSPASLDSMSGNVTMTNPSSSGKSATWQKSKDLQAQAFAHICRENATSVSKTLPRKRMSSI
Description: S230: Cy5-labelled OCN, Cy5-labelled hOCN22, and Cy5-labelled ISAP^2 may promote internalization of GPRC6A in the GPRC6A-overexpressed Hela cells.
The hGPRC6A-expressed Hela cell suspension may be plated at a density of 1.6×10^5/ml into a 24-well tray, and each well of the tray may be pre-placed with a gelatin-coated coverslip. 0.5 mL of media containing the cells may be added into each well, and the cells may be incubating at 37° C. and 5% CO2 for 24 hours. The cells may be starved for 4 h in serum-free media before any treatment, and then 100 nM of Cy5-OCN, 100 nM of Cy5-hOCN22, and 100 nM of Cy5-ISAP2 may be added to each well respectively to incubate with the cells at 37° C. for 30 minutes. The cells may be fixed by polyoxymethylene for 30 minutes. Afterwards, Triton X may be added to incubate with the cells for 10 minutes. The cells may be stained with 4′,6-diamidino-2-phenylindole (DAPI, Sigma) for 10 seconds as per manufacturer's instructions, and observed and photographed by a fluorescence confocal microscope.

wild-type C57BL/6 mice = test: gavage of ISAP4, ISAP5, ISAP6: intestinal absorption of fat (olive oil) in normal mice; format: in vivo; conditions: gavage 2 pmol/g daily one week, day 8 olive oil 200 μl, compared with saline control group, FIG. 9
Excerpt: S410: effects of acute gavage of ISAP4, ISAP5, and ISAP6 on intestinal absorption of fat in normal mice may be studied.
15 male wild-type C57BL/6 mice of 6 weeks old may be divided into 5 groups, 3 in each group. There may be 3 experimental groups, and the mice in the 3 experimental groups may be administered with ISAP4, ISAP5, and ISAP6 at 2 pmol/g of body weight respectively. The mice in two control groups may be gavaged with an equal volume of normal saline daily for one week. On the 8th day of the experiment, 30 minutes after gavage of ISAP4, ISAP5, ISAP6 and normal saline respectively, the mice in the three experimental groups may be gavaged with 200 μl of sterilized olive oil, the mice in one of the control groups may also be intragstrically administered with 200 μl of sterilized olive oil to be a saline control group, and the mice in the other one of the control groups may further be gavaged with 200 μl of normal saline to be a negative control group. After 50 minutes, each mouse may be euthanized using 95% CO2 and dissected to obtain small intestines. The jejunum near the duodenum may be frozen and sliced, stained with oil red O, and counterstained with hematoxylin. An oil red O-positive area may be quantified by the ImageJ software under double-blind conditions and a ratio of the oil red O-positive area to a total area of the intestinal villi may be calculated. Statistical analysis may be performed to compare with the mince in the saline+olive oil group. ***: p<0.001. N=3.
The oil red O-positive area may be quantified by the ImageJ software under double-blind conditions and the ratio of the oil red O-positive area to the total area of the intestinal villi may be calculated. […] Meanwhile, referring to the sequence comparison shown in FIG. 8, it can be seen that SEQ ID NO. 12: PVPYPDPLEP, SEQ ID NO. 15: SVPSPDPLEP, SEQ ID NO. 13: PYPDPLEP and SEQ ID NO. 16: PSPDPLEP are highly similar in sequence, and these sequences may be very conservative in various species. […]

HFD mice [1] = test: gavage of peptides in HFD mice: triglyceride in feces, week 7; format: in vivo, C57BL/6 mice; conditions: gavage 2 pmol/g, feces of week 7, compared with HFD control group, FIG. 7B
Description: Feces of each mouse may be collected in week 7, baked at 60° C. for 3 days to ensure complete dryness. Then, 1 mg of the feces may be collected and soaked in 1 ml of a mixed solution consisting of chloroform and methanol in a ratio of 2:1. The soaked feces may then be disrupted with a tissue homogenizer and centrifuged to obtain a supernatant. The supernatant may be detected for triglyceride by the Roche blood biochemical analyzer. Experimental results are shown in FIG. 7B. **: P<0.01, ***: P<0.001.
(§1) Feces of the mice may be collected in the 7th week of the experiment and baked at 60° C. for 3 days to ensure complete dryness. Then, 1 mg of the feces may be weighed and soaked in 1 ml of a mixed solution containing chloroform and methanol in a ratio of 2:1. The feces with the mixed solution may be disrupted by a tissue homogenizer and centrifuged to obtain a supernatant. The supernatant may be detected for triglyceride by the Roche blood biochemical analyzer.
as §1, with “2:1.The” for “2:1. The”
as §1, with “each mouse” for “the mice”, “experiment,” for “experiment”, “dryness.” for “dryness. Then,”, “in” for “with”

human GPRC6A (hGPRC6A) = target: T2, human GPRC6A (hGPRC6A) (Homo sapiens, UniProt Q5T6X5); test: fluorescent binding of OCN peptides to cell membranes of Hela cells with hGPRC6A overexpressed; conditions: cell membranes of Hela cells with hGPRC6A overexpressed, FIG. 6B
T2 construct: expressed in transfected cells; host or cells: Hela cells (transfected with Lipofectamine 2000)
T2 sequence (Q5T6X5 19-926): T1 sequence (Q5T6X5 19-926)
Description: S131: overexpression of hGPRC6A in Hela cells may be established.
1) Cell plating: A Hela cell suspension may be plated at a density of 1.6×10^5 cells/mL into a 6-well tray with 2 mL of DMEM per well, incubating at 37° C. and 5% CO2 for 24 hours.
2) A vector carrying hGPRC6A (pReceiver-M61) may be transfected into the Hela cells for overexpression, using Lipofectamine 2000 (Invitrogen) as per manufacturer's instructions, and media containing the vector may be replaced by normal media 4 hours later.
3) After the transfection, the cells may be cultured in the normal media for another 48 hours, and the normal media may be discarded. The cells attached on a bottom of each well may be washed twice with sterile PBS, and 300 μl of TRIzol solution may be added into each well. Cellular RNAs may be extracted as per RNAiso Plus (TaKaRa) instructions, and after a DNase treatment, may be reversely transcribed into cDNAs using DNAEngine and a SuperScript™ (Invitrogen, Canada) kit. The cDNAs may be used as a template, and real-time monitoring and analysis may be performed to fluorescent PCR products at various time points using a SYBR Green (Light Cycler Roche, Germany) method to detect expression levels of the hGPRC6A. […] The selected cell strain may then be detected for its gene expression by qPCR. […]

HFD mice [2] = test: gavage of peptides in HFD mice for 7 weeks: body weight; format: in vivo, C57BL/6 mice; conditions: gavage 2 pmol/g of body weight for 7 weeks, compared with HFD control group, FIG. 7A
Excerpt: Six-week-old male wild-type C57BL/6 mice may be divided into 6 groups, 6 mice in each group. Group #1 may be provided with ND, and groups #2 to #6 may be provided with HFD. Group #2 may be treated as a HFD control group. Groups #3 to #6 may be experimental groups, and mice ingroups #3 to #6 may be gavaged with OCN, ISAP1, ISAP2, and ISAP3 respectively at 2 pmol/g of body weight for 7 weeks. Body weight of each mouse may be monitored and measured once a week.
Six-week-old male wild-type C57BL/6 mice may be divided into 6 groups, 6 in each group. Group #1 may be provided with ND to be a ND control group, and groups #2 to #6 may be provided with HFD. Group #2 may be treated as a HFD control group. Groups #3 to #6 may be treated as experimental groups and may be gavaged with OCN, ISAP1, ISAP2, and ISAP3 respectively at 2 pmol/g of body weight daily for 7 weeks. Body weight may be monitored and measured once a week.
Six-week-old male wild-type C57BL/6 mice may be divided into 6 groups, 6 in each group. Group #1 may be provided with ND to be a ND control group, groups #2 to #6 may be provided with HFD. Group #2 may be treated as a HFD control group. Groups #3 to #6 may be treated as experimental groups, and may be gavaged with OCN, ISAP1, ISAP2, and ISAP3 respectively at 2 pmol/g of body weight daily for 7 weeks. A body weight of each mouse may be monitored and measured once a week.

distribution of Cy5-labelled peptide (internalization) (GPRC6A): distributed inside the cell
Substance: Cy5-ISAP2: Cy-5-labeled SEQ ID NO.2 (ISAP2) (YLYQWLGAPVPYPDPLEP; also: Cy5 label, position not given here; listed as Homo sapiens)

distribution of Cy5-labelled peptide (internalization) (GPRC6A): distributed inside the cell
Substance: Cy5-OCN: Cy-5-labeled OCN (osteocalcin protein) (YLYQWLGAPVPYPDPLEPRREVCELNPDCDELADHIGFQEAYRRFYGPV; ends and bridges not checked; also: Cy5 label, position not given here; UniProt P02818 52-100, looked up) [reference compound]

Substance: PDPLEP [ISAP6]
absorption of olive oil in the mice (oil red O-positive area / total area of intestinal villi) (wild-type C57BL/6 mice): effectively reduce the absorption of olive oil

Substance: PSPDPLEP [ISAP5]
absorption of olive oil in the mice (oil red O-positive area / total area of intestinal villi) (wild-type C57BL/6 mice): effectively reduce the absorption of olive oil

Substance: SVPSPDPLEP [ISAP4]
absorption of olive oil in the mice (oil red O-positive area / total area of intestinal villi) (wild-type C57BL/6 mice): effectively reduce the absorption of olive oil

ability of binding with cell membranes, compared with hOCN (human GPRC6A (hGPRC6A)): consistent with that of hOCN
Substance: YLYQWLGASVPSPDPLEP [ISAP2]
content (level) of triglyceride in the feces (HFD mice [1]): significantly increased
body weight (HFD mice [2]): significant weight loss

Substance: YLYQWLGASVPSPDPLEPR [ISAP3]
content (level) of triglyceride in the feces (HFD mice [1]): significantly increased
body weight (HFD mice [2]): significant weight loss
